According to patent US6083496A, “Polyamine transport inhibitors” (priority 1996, dated 2000):

Tests used:
polyamine transporter [1] = conditions: ZR-75-1 cells; compound as its own substrate; read-out: Km, spermine transport; cited from earlier work
polyamine transporter [2] = assay: Spermidine uptake ([3H]spermidine) in ZR-75-1 cells; type: cell-based, human; conditions: FIG. 3
Experimental: (§1) J. Biol. […] Endocrinology 126: 3223-3231). […] Cell cultures were then washed twice with 1 ml PBS containing 5.7 mM sym-norspermidine. Cells were then lysed with 200-μl aliquot of 1 N NaOH and incubated for 30 minutes at 60° C. After neutralization with 200 μl of 1 N HCl, radioactivity was determined from a 250-μl of the cell lysate by scintillation counting. Uptake activity was expressed per amount of total cellular protein as determined by the method of Bradford (Bradford, M. M. 1976. Anal. Biochem. 72: 248-254). Non-specific binding of radioactive substrate was similarly determined in parallel for both cell lines after a 15 second-incubation with 400 μl of ice-cold uptake solution. […] Km, Ki and Vmax values were then estimated by Line-weaver-Burke analysis. For competitive inhibitors, Ki values were also estimated by measuring uptake activity in the presence of logarithmically increasing concentrations of antagonist, and using the Cheng-Prusoff equation (Cheng. Y. -C. and Prusoff, W. H. 1973. Biochem. Pharmacol. 22: 3099-3108) by iterative curve fitting for a sigmoidal curve. For mixed competitive/noncompetitive inhibition, two methods were used to calculate kinetic constants. […] C. 1976. Enzymes, 3rd Ed., Academic Press, San Diego, Calif.). […] C. 1976. Enzymes, 3rd Ed., Academic Press, San Diego, Calif.).

polyamine transporter [3] = assay: Putrescine uptake ([3H]putrescine) in ZR-75-1 cells; type: cell-based, human; conditions: FIG. 3
Experimental: as §1

ZR-75-1 cells = assay: Effect of inhibitors on cell proliferation (11 days, DNA content); type: cell-based, human; conditions: 11 days
Experimental: Effect of Inhibitors on Cell Proliferation--For growth studies, ZR-75-1 cells were cultured in MEZR medium or in phenol red-free RPMI 1640 supplemented with 2 mM L-glutamine, 1 mM sodium pyruvate, 15 mM Hepes, antibiotics, 1 nM 17β-estradiol, 0.5 μg of bovine insulin per ml and 5% (v/v) charcoal-treated fetal bovine serum (SD medium), as indicated in the text. […] M. L. 1989. in The Physiology of Polyamines (Bachrach, U., and Helmer, Y. M. eds) Vol. I, pp. 203-229, CRC Press, Boca Raton). […] Endocrinology 126: 3223-3231). Medium was changed every other day in these experiments because of the slow reaction of the compound with an unknown component present in the IMEM and RPMI 1640 medium formulation.

[4] = secondary amino group of the spermine head; cited from earlier work

## NCCCNCCCCNCCCN [Spermine, N,N'-bis-[3-aminopropyl]-1,4-butane-diamine, reference compound]
Polyamine transporter [1]
  Km: 200 ± 60 nM
Polyamine transporter [2]
  Ability to compete against [3H]spermidine uptake, fold higher than that of DESC: about 7 fold
Polyamine transporter [3]
  Ability to compete against [3H]putrescine uptake, fold higher than that of DESC: about 7 fold
ZR-75-1 cells; 50 μM
  Effect on cell growth: acutely cytotoxic
ZR-75-1 cells; spermine 50 μM, MESC 200 μM, DEASC 50 μM
  Influence of 1 mM aminoguanidine on the growth effect of the compound: only partly prevented by aminoguanidine
[4]
  pKa: 8.9-9.8
